One data set in a line: PET studies. In kind it is in vivo, C57BL/6 mice. The following applies: co-injection with excess (50 μg) non-radioactive 4.
Data set [1] addresses CXCR4 (Mus musculus, UniProt P70658). Particulars: read-out: IC50 of ^64Cu-4 binding to mouse splenocytes; constant amount of ^64Cu-4 and increasing concentrations of non-radioactive 4, 1 h; average of three experiments.
The conditions of data set [2]: cited from earlier work.
Data set [3] deals with CXCR4 (Homo sapiens, UniProt P61073). The data set is described as follows: Transwell migration assay of Jurkat cells towards SDF-1. In kind it is cell-based. The following applies: SDF-1 in lower wells.

Read-outs that look alike come from different tables or passages of the source.

Consider 3 compounds from publication PMC2723765 (Bioorganic & medicinal chemistry, 2009).

By IC50 is commonly meant the midpoint of a concentration-inhibition curve.

CXCR4 (Mus musculus, UniProt P70658), sequence (P70658 whole entry): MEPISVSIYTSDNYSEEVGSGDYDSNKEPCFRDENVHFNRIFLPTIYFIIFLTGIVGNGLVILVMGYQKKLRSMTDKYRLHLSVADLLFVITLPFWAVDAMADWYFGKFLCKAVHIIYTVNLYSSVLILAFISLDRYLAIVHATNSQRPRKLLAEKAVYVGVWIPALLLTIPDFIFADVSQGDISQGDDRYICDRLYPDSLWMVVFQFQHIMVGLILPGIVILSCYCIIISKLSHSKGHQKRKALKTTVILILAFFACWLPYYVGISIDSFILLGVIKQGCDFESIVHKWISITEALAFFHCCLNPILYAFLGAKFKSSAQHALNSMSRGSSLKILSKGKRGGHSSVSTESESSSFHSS
CXCR4 (Homo sapiens, UniProt P61073), sequence (P61073 whole entry): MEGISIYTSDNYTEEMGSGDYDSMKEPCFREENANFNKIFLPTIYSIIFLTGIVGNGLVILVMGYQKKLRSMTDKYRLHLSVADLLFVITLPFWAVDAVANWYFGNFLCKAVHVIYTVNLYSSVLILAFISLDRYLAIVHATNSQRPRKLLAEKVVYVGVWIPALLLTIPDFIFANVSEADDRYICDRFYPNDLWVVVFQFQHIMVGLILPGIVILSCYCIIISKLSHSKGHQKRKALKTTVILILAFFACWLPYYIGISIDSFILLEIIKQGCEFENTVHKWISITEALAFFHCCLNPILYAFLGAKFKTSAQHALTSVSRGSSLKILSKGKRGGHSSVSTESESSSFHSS

As to `CC(=O)[O-].CC(=O)[O-].[64Cu+2].c1cc(CN2CCCNCCNCCCNCC2)ccc1CN1CCCNCCNCCCNCC1` [^64Cu-4, [^64Cu]-1′-{1,4-phenylenebis(methylene)}-bis{1,4,8,11-tetraaza-cyclotetradecane}copper acetate], in “PET studies”, the “PET: uptake in spleen and liver after blocking” value is given as “undetectable levels”. The half-maximal inhibitory concentration (IC50) at CXCR4 [1] was found to be 46.9 µM. Under “1 h post i.v. injection”, the “Uptake in BM” value is 14 % ID/g, the “Uptake in LN” value is given as 10 % ID/g, the Uptake in blood was determined as 1.7 % ID/g and the Uptake in kidneys was 10 % ID/g. In addition, where the note is “1 h post i.v. injection”, the Uptake in liver came out at 41 % ID/g, the Uptake in muscle was determined as 0.3 % ID/g and the Uptake in spleen is given as 13 % ID/g. For the setting “2 h post injection”, this compound returned an Accumulation in blood below 1 % ID/g and an Accumulation in liver of 49 % ID/g. Further, the “Change of accumulation in spleen, LN, liver and BM” value (6 h post injection) is listed as “slight increase”. Moreover, the “Change of accumulation in kidneys” value (co-injection of excess (50 μg) non-labeled 4) was “corresponding increase in accumulation”. For the same compound, the “Reduction of accumulation in liver” value (co-injection of excess (50 μg) non-labeled 4, 2 h) amounted to 79%. Besides, the “Reduction of accumulation in liver” value (co-injection of excess (50 μg) non-labeled 4, 6 h) is 74%. Also, the “Reduction of accumulation in all immune related organs” value (co-injection of excess (50 μg) non-labeled 4, versus accumulation after 2 or 6 h) is given as 60–80%.
Consider “^99Tc- SDF-1: SDF-1 labeled with ^99Tc, imaging agent for myocardial infarction”, for which, in data set [2], the “Accumulation in infarcted myocardium” value was 0.6 % ID/g and the “Accumulation in normal myocardium” value was 0.1 % ID/g.
For the compound “SDF-1: chemokine stromal cell-derived factor-1, native ligand for CXCR4”, the “Lowest concentration that induces maximal migration of Jurkat cells” value with CXCR4 [3] worked out at 100 ng/mL.
